# Test system: C. albicans
# Assay: Test to evaluate pharmacological effect of rapamycin on animal (rabbit) model of keratomycosis
# Format: in vivo, New Zealand white rabbit
# Description: Test to evaluate pharmacological effect of rapamycin on animal (rabbit) model of keratomycosis
# 4% (w/w) rapamycin solution: This sample was prepared by dissolving rapamycin (Chunghwa Chemical Synthesis & Biotech Co., Ltd.) in a solution containing 4% (w/w) ethanol and […] polyethylene glycol 400.
# About 10 μL of a C. albicans solution (1×10^4 CFU/mL to 5×10^4 CFU/mL) was administered to the central corneal stroma of the right eye of a male New Zealand white rabbit of about 3 kg, and thereby an animal (rabbit) model of keratomycosis was prepared (Cornea, Volume 26, Number 3, 336-342, April 2007).
# For a base administered group (Group 1; N=4), 20 μL of a base (a solution containing 4% (w/w) ethanol and 96% (w/w) polyethylene glycol 400) was administered subconjunctivally on the day of induction.
# For a rapamycin administered group (Group 2; N=4), 20 μL of a 4% (w/w) rapamycin solution (0.88 mg rapamycin) was administered subconjunctivally on the day of induction.
smiles,measurement,setting,value
CO[C@H]1C[C@@H]2CC[C@@H](C)[C@@](O)(O2)C(=O)C(=O)N2CCCC[C@H]2C(=O)O[C@H]([C@H](C)C[C@@H]2CC[C@@H](O)[C@H](OC)C2)CC(=O)[C@H](C)/C=C(\C)[C@@H](O)[C@@H](OC)C(=O)[C@H](C)C[C@H](C)/C=C/C=C/C=C/1C [rapamycin],"clinical scores (McDonald-Shadduck scoring system, slit lamp)","20 μL of 4% (w/w) rapamycin solution (0.88 mg rapamycin), single subconjunctival administration on day of induction, right eye, post-induction days 2 and 5, compared with base administered group, N=4",lower than those of the base administered group
same,duration for which remarkable therapeutic effect on keratomycosis is maintained,"single subconjunctival administration of an injection containing rapamycin, polyethylene glycol and ethanol, rabbit C. albicans keratomycosis model",at least 5 days
